Test results as given in ChEMBL document CHEMBL4507269, “Data for DCP probe BAY-386” (2021).

Experiments:
[1] = molecular target: Vascular endothelial growth factor receptor 1 (Homo sapiens) (UniProt P17948); conditions: Compound concentration 1000.0 nM
[2] = molecular target: Proto-oncogene tyrosine-protein kinase receptor Ret (Homo sapiens) (UniProt P07949); conditions: Compound concentration 1000.0 nM
[3] = molecular target: Interleukin-1 receptor-associated kinase 3 (Homo sapiens) (UniProt Q9Y616); conditions: Compound concentration 1000.0 nM
[4] = molecular target: Mitogen-activated protein kinase kinase kinase 5 (Homo sapiens) (UniProt Q99683); conditions: Compound concentration 1000.0 nM
[5] = molecular target: SRSF protein kinase 2 (Homo sapiens) (UniProt P78362); conditions: Compound concentration 1000.0 nM
[6] = molecular target: Serine/threonine-protein kinase 38 (Homo sapiens) (UniProt Q15208); conditions: Compound concentration 1000.0 nM
[7] = molecular target: D(1B) dopamine receptor (Homo sapiens) (UniProt P21918); conditions: Compound concentration 10.0 uM
[8] = molecular target: Cyclin-dependent kinase 14 (Homo sapiens) (UniProt O94921); conditions: Compound concentration 1000.0 nM
[9] = molecular target: Serine/threonine-protein kinase 10 (Homo sapiens) (UniProt O94804); conditions: Compound concentration 1000.0 nM
[10] = molecular target: GABA-A receptor; anion channel (Rattus norvegicus) (UniProt O09028+P15431+P18506+P18508+P19969+P20236+P23574+P23576+P28471+P28473+P30191+P62813+P63079+P63138+Q91ZM7+Q9ES14); conditions: Compound concentration 10.0 uM
[11] = molecular target: Serine/threonine-protein kinase MAK (Homo sapiens) (UniProt P20794); conditions: Compound concentration 1000.0 nM
[12] = molecular target: Ephrin type-A receptor 2 (Homo sapiens) (UniProt P29317); conditions: Compound concentration 1000.0 nM
[13] = molecular target: Mitogen-activated protein kinase kinase kinase 3 (Homo sapiens) (UniProt Q99759); conditions: Compound concentration 1000.0 nM
[14] = molecular target: Cyclin-dependent kinase 3 (Homo sapiens) (UniProt Q00526); conditions: Compound concentration 1000.0 nM
[15] = molecular target: T1, Muscarinic acetylcholine receptor M2 (Homo sapiens) (UniProt P08172); conditions: Compound concentration 10.0 uM
T1 sequence (whole entry): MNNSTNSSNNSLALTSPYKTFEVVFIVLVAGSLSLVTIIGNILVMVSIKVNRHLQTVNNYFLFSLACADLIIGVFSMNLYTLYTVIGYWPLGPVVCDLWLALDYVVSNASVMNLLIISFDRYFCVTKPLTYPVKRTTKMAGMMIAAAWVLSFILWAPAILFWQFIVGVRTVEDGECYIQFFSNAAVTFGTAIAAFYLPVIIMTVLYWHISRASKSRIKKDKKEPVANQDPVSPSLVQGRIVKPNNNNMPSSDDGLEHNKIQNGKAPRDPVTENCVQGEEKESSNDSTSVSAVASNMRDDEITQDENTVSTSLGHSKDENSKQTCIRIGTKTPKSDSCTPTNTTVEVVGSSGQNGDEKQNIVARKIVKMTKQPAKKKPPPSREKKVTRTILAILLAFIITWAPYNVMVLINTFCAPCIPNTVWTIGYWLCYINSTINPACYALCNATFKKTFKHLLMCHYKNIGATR

[16] = molecular target: Serine/threonine-protein kinase 32A (Homo sapiens) (UniProt Q8WU08); conditions: Compound concentration 1000.0 nM
[17] = molecular target: T2, Alpha-1A adrenergic receptor (Homo sapiens) (UniProt P35348); assay: alpha1A (h) Eurofins-Cerep Cellular and Nuclear Receptor Functional Assays; conditions: Compound concentration 10.0 uM
T2 sequence (whole entry): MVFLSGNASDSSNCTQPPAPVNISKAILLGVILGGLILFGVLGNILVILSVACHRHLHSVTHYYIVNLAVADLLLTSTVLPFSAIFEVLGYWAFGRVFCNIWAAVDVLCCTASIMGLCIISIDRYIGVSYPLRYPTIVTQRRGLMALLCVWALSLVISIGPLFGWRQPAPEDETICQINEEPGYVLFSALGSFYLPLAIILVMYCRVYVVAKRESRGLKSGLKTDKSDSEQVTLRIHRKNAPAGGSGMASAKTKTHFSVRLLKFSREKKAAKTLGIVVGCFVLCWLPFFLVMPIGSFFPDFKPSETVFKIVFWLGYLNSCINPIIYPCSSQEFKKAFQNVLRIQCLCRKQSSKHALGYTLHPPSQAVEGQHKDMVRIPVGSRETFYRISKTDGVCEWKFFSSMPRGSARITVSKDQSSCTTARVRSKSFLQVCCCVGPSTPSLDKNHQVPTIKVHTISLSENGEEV

[18] = molecular target: Calcium/calmodulin-dependent protein kinase type II subunit beta (Homo sapiens) (UniProt Q13554); conditions: Compound concentration 1000.0 nM
[19] = molecular target: Fibroblast growth factor receptor 4 (Homo sapiens) (UniProt P22455); conditions: Compound concentration 1000.0 nM
[20] = molecular target: Serine/threonine-protein kinase Sgk1 (Homo sapiens) (UniProt O00141); conditions: Compound concentration 1000.0 nM
[21] = molecular target: Serine/threonine-protein kinase 38-like (Homo sapiens) (UniProt Q9Y2H1); conditions: Compound concentration 1000.0 nM
[22] = molecular target: Mitogen-activated protein kinase 12 (Homo sapiens) (UniProt P53778); conditions: Compound concentration 1000.0 nM
[23] = molecular target: Cyclin-dependent kinase 11B (Homo sapiens) (UniProt P21127); conditions: Compound concentration 1000.0 nM
[24] = molecular target: Dual specificity protein kinase CLK2 (Homo sapiens) (UniProt P49760); conditions: Compound concentration 1000.0 nM
[25] = molecular target: Myosin light chain kinase (Homo sapiens) (UniProt Q32MK0); conditions: Compound concentration 1000.0 nM
[26] = molecular target: Mitogen-activated protein kinase 8 (Homo sapiens) (UniProt P45983); conditions: Compound concentration 1000.0 nM
[27] = molecular target: Microtubule-associated serine/threonine-protein kinase 1 (Homo sapiens) (UniProt Q9Y2H9); conditions: Compound concentration 1000.0 nM
[28] = molecular target: 5-hydroxytryptamine receptor 2A (Homo sapiens) (UniProt P28223); conditions: Compound concentration 10.0 uM
[29] = molecular target: Serine/threonine-protein kinase SIK2 (Homo sapiens) (UniProt Q9H0K1); conditions: Compound concentration 1000.0 nM
[30] = molecular target: Ephrin type-A receptor 6 (Homo sapiens) (UniProt Q9UF33); conditions: Compound concentration 1000.0 nM
[31] = molecular target: Protein kinase C epsilon type (Homo sapiens) (UniProt Q02156); conditions: Compound concentration 1000.0 nM

Proto-oncogene tyrosine-protein kinase receptor Ret (Homo sapiens), sequence (P07949 whole entry): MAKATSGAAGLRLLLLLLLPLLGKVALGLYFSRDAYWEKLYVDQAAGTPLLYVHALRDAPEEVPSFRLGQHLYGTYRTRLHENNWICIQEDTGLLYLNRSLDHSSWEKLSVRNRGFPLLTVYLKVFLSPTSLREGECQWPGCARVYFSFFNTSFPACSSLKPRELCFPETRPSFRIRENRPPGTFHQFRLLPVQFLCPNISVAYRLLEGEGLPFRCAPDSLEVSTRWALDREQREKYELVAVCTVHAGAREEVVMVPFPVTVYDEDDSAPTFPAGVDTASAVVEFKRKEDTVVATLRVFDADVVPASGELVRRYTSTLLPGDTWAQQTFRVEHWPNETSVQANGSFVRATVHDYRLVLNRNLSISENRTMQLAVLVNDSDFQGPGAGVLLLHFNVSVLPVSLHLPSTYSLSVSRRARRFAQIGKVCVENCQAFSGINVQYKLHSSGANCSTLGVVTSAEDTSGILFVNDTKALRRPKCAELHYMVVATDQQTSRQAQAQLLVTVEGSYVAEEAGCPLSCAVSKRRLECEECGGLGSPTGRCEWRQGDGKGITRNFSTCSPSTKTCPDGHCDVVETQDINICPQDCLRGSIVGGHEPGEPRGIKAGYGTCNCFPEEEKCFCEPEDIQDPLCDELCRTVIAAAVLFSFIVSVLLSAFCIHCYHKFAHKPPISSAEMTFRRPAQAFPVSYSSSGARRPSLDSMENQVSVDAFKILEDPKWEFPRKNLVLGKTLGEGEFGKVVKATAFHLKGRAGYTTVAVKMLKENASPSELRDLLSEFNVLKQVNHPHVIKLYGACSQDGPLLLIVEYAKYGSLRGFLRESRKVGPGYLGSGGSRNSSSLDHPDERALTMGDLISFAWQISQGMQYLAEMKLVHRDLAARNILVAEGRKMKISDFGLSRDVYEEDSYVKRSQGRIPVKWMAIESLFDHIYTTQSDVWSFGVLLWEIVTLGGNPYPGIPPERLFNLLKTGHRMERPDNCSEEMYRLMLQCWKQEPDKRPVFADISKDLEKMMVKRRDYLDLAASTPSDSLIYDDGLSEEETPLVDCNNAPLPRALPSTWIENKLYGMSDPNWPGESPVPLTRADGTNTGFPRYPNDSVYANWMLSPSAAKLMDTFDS
Ephrin type-A receptor 6 (Homo sapiens), sequence (Q9UF33 whole entry): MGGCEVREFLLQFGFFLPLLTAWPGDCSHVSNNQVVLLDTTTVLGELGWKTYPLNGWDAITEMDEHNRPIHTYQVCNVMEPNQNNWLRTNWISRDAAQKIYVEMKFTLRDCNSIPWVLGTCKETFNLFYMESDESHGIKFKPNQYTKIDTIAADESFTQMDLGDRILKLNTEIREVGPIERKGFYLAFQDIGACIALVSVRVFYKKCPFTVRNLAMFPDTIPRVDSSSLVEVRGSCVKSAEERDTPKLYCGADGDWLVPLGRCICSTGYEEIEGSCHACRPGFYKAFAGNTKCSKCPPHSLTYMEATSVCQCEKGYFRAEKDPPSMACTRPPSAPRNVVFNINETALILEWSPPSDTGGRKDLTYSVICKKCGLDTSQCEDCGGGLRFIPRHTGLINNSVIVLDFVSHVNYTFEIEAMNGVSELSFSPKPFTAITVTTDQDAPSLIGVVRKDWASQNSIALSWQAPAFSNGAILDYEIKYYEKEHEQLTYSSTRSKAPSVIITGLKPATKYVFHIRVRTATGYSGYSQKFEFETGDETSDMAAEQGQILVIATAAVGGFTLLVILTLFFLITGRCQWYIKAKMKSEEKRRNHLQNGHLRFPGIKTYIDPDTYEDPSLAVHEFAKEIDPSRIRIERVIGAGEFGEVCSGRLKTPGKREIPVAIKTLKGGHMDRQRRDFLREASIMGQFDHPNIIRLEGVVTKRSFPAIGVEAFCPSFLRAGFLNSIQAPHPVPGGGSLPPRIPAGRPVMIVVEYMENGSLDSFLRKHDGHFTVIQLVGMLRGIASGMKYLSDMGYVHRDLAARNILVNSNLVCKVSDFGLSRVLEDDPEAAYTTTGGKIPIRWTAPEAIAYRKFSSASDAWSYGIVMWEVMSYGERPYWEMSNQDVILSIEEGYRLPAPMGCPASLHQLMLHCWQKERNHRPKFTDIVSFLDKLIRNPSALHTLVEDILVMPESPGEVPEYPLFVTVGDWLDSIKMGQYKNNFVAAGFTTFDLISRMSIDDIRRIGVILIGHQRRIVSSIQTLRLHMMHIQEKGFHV
Mitogen-activated protein kinase 8 (Homo sapiens), sequence (P45983 whole entry): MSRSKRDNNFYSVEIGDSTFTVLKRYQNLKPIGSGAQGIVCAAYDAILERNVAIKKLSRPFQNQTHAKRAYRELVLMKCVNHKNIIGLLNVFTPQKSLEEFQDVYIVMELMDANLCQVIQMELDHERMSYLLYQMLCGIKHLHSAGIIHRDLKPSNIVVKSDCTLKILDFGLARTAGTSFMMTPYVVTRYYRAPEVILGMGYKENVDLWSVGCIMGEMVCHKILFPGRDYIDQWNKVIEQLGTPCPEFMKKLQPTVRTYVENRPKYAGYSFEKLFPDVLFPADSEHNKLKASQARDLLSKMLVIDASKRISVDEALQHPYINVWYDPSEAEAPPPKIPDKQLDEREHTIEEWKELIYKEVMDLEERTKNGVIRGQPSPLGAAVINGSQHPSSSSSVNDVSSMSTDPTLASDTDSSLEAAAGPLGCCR
Ephrin type-A receptor 2 (Homo sapiens), sequence (P29317 whole entry): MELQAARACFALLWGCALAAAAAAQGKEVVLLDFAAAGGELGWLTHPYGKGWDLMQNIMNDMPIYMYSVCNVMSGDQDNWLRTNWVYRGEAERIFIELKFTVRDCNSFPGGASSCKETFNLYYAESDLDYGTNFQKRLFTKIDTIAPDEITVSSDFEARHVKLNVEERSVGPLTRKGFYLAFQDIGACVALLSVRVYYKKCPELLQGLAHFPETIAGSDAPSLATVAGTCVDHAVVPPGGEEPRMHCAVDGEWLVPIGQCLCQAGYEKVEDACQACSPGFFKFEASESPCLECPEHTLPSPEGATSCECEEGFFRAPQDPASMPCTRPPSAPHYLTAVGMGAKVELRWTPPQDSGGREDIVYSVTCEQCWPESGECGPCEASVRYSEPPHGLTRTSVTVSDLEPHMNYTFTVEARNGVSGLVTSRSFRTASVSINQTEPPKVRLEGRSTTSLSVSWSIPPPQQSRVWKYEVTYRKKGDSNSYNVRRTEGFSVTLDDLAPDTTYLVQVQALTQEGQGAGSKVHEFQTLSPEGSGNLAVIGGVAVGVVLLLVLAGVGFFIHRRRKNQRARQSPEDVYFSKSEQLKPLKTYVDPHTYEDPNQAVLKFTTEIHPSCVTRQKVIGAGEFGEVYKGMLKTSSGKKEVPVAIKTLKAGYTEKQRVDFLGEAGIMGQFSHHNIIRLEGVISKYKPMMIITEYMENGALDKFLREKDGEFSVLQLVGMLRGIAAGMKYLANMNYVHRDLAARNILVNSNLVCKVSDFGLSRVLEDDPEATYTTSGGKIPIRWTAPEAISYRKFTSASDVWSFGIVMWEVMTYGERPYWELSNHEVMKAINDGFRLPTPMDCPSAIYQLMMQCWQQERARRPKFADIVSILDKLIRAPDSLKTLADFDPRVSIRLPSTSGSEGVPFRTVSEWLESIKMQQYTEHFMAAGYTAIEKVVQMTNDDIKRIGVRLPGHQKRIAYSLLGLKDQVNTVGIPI
SRSF protein kinase 2 (Homo sapiens), sequence (P78362 whole entry, looked up): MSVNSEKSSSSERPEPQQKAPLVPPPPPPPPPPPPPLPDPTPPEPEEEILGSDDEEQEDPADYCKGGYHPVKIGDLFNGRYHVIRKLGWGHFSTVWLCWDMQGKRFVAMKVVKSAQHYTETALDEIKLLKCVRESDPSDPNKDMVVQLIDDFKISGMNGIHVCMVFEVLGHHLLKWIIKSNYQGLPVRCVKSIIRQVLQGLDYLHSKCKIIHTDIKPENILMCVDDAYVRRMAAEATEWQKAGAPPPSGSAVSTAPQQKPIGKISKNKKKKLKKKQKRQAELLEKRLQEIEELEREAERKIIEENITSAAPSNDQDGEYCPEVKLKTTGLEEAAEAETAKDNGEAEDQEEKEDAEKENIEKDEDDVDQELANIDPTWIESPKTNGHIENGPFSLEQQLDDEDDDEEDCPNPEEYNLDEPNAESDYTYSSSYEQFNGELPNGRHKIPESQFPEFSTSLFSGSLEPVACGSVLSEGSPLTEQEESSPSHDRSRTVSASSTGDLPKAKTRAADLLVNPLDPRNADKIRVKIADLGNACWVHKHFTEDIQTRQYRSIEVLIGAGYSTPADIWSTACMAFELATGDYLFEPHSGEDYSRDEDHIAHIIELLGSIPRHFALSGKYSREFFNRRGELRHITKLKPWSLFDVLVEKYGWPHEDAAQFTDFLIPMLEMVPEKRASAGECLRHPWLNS
Serine/threonine-protein kinase 38-like (Homo sapiens), sequence (Q9Y2H1 2-464 limits assumed): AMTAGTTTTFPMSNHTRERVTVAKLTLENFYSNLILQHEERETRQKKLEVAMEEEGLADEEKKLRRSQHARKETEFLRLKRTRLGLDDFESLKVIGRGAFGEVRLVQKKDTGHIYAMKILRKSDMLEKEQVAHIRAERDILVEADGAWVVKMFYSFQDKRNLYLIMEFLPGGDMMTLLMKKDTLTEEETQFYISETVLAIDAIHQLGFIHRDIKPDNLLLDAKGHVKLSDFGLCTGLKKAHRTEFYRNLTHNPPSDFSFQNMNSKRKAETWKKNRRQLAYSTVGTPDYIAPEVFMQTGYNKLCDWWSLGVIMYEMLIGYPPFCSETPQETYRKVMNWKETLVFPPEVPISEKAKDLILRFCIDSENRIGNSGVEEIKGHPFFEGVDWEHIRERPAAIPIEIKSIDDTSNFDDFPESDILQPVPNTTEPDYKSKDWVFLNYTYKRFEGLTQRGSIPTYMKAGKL
Mitogen-activated protein kinase 12 (Homo sapiens), sequence (P53778 whole entry): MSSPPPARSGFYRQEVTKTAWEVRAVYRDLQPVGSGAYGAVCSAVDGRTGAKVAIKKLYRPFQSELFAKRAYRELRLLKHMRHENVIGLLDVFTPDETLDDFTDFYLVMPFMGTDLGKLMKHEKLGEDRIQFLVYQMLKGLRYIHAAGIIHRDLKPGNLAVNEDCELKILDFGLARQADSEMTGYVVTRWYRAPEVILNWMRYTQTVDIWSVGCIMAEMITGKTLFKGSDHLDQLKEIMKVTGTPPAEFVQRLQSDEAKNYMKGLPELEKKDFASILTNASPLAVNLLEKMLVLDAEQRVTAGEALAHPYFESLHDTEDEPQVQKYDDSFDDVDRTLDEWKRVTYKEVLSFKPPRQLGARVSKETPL

`O=C(N1CCS(=O)(=O)CC1)N1C[C@H](c2ccc(OC(F)(F)F)cc2)C[C@H](c2nc(C3CC3)no2)C1` [BAY-386] was tested, and the residual activity [1] was 100%, the residual activity [2] was 93% and the residual activity [3] was 100%. It also gave a residual activity [4] of 100%, a residual activity [5] of 100% and a residual activity [6] of 100%. It also gave an inhibition [7] of 9.95%, a residual activity [8] of 100% and a residual activity [9] of 100%. For the same compound, the inhibition [10] was -7.39%, the residual activity [11] was 100% and the residual activity [12] was 100%. It also gave a residual activity [13] of 100%, a residual activity [14] of 96% and an inhibition [15] of -9.14%. The residual activity [16] was 89%, the % Inhibition of Control Agonist Response (Mean n=2) [17] was 18.8% and the % of Control Agonist Response (Mean n=2) [17] was 11.5%. For the same compound, the residual activity [18] was 100%, the residual activity [19] was 100% and the residual activity [20] was 91%. For the same compound, the residual activity [21] was 100%, the residual activity [22] was 100% and the residual activity [23] was 100%. For the same compound, the residual activity [24] was 100%, the residual activity [25] was 79% and the residual activity [26] was 82%. It also gave a residual activity [27] of 100%, an inhibition [28] of 10.5% and a residual activity [29] of 100%. For the same compound, the residual activity [30] was 100% and the residual activity [31] was 97%.

`Cc1noc([C@H]2C[C@@H](c3ccc(C(F)(F)F)cc3)CN(C(=O)N3CCS(=O)(=O)C3)C2)n1` [BAY-448] gave a residual activity [1] of 100%, a residual activity [2] of 100% and a residual activity [3] of 100%. The residual activity [4] was 100%, the residual activity [5] was 100% and the residual activity [6] was 100%. It also gave an inhibition [7] of 22.6%, a residual activity [8] of 100% and a residual activity [9] of 100%. It also gave an inhibition [10] of 3.61%, a residual activity [11] of 100% and a residual activity [12] of 100%. It also gave a residual activity [13] of 84%, a residual activity [14] of 100% and an inhibition [15] of 39.5%. It also gave a residual activity [16] of 100%, a % Inhibition of Control Agonist Response (Mean n=2) [17] of 4.3% and a % of Control Agonist Response (Mean n=2) [17] of -0.4%. For the same compound, the residual activity [18] was 100%, the residual activity [19] was 100% and the residual activity [20] was 100%. It also gave a residual activity [21] of 100%, a residual activity [22] of 100% and a residual activity [23] of 100%. The residual activity [24] was 100%, the residual activity [25] was 100% and the residual activity [26] was 77%. It also gave a residual activity [27] of 100%, an inhibition [28] of -2.96% and a residual activity [29] of 100%. The residual activity [30] was 100% and the residual activity [31] was 100%.
